Experimental data: patent US4563471A, “4-Oxothiazolidin-2-ylidene-acetamide derivatives as CNS agents” (Warner-Lambert Company, priority 1983, dated 1986)
Like-named read-outs stand apart in the source and are kept apart here.

How the values were obtained:
male mice (NMRI) [1] = assay: Electroshock; type: in vivo, mouse
Protocol: (§1) In the case of all substances, there was used in the cramp test as vehicle 0.8% Methocel mucilage. The premedication time amounted to 30 minutes, insofar as nothing else is stated, and the administration took place i.g. in 20 ml/kg body weight.
(§2) Experimental animals were male mice (NMRI) with a body weight of 18 to 24 g., which were kept under controlled conditions. Twenty-four hours (if not stated otherwise) before commencement of the experiment, the feed was withdrawn but, up to the commencement of the experiment, the drinking water was left.
(§3) Per dosage, in each case ten animals were subjected to the test.
3. […] For the transmission of the current impact, electrodes in the form of ear clips were fixed to the ears of the mouse. The period of the shock amounted to 0.3 s., the current strength to 35 mA (voltage self-regulating).

male mice (NMRI) [2] = assay: Pentetrazole cramp; type: in vivo, mouse; details: po, 20 min; for ED50: read-out: ED50 pentetrazole cramp
Protocol: as §1, §2, §3

male mice (NMRI) [3] = assay: Semicarbazide cramp; type: in vivo, mouse; details: po, 1.5 h; for ED50: read-out: ED50 semicarbazide cramp
Protocol: as §1, §2, §3
7. Semicarbazide cramp--Semicarbazide hydrochloride was used as cramp agent in a dosage of 1000 mg/kg s.c. The observation time amounted in each case to 90 minutes p.a.

male mice (NMRI) [4] = assay: Picrotoxin cramp; type: in vivo, mouse; details: for ED50: Mus musculus, po, 20 min, read-out: ED50 picrotoxin cramp; for ED50 picrotoxin cramp: i.g., male mouse, picrotoxin 15 mg/kg s.c., observation 20 min
Protocol: as §1, §2, §3

male mice (NMRI) [5] = assay: Strychnine cramp; type: in vivo, mouse; details: for ED50: Mus musculus, po, 20 min, read-out: ED50 strychnine cramp; for ED50 strychnine cramp: i.g., male mouse, strychnine 1.1 mg/kg s.c., observation 20 min
Protocol: as §1, §2, §3
2. Strychnine cramp--As convulsive, there was used strychnine nitric cryst in a dosage of 1.1 mg/kg s.c., whereby the observation time amount to 20 minutes p.a.

male mice (NMRI) [6] = assay: 3-Mercaptopropionic acid cramp (3-MPA); type: in vivo, mouse; details: po, 0.5 h, read-out: ED50 3-MPA cramp
Protocol: as §1, §2, §3
8. 3-Mercaptopropionic acid--3-Mercaptopropionic acid was diluted with physiological NaCl solution, adjusted with 6 mol/l NaOH to PH 7 and brought with NaCl solution to the end volume (10 ml/kg). The observation time amounted to 30 minutes.

male mice (NMRI) [7] = assay: Isoniazide cramp; type: in vivo, mouse; details: po, 1.5 h, read-out: ED50 isoniazide cramp
Protocol: as §1, §2, §3

male mice (NMRI) [8] = assay: Bicuculline cramp; type: in vivo; details: po, 20 min; i.g., male mouse; bicuculline 3.0 mg/kg s.c.; observation 20 min
Protocol: as §1, §2, §3
(§4) As positive standard, there were used phenytoin, valproate, GABA and baclofen.
6. Bicuculline cramp--Cramp agent was bicuculline purum. The dosage amounted to 3.0 mg/kg s.c. The observation time amount to 20 minutes.

DBA/2j mice = assay: Audiogenic cramps; type: in vivo, mouse; details: po, 1 min, read-out: ED50 audiogenic cramp
Protocol: as §1
(§5) In the case of the audiogenic cramps, DBA/2j mice of male sex were used in a weight of 5-10 g which, on the day before the experiment, were removed and not fasted.
as §3
9. […] The observation time amount to one minute.

in vivo = details: mouse, po
Protocol: The determination of the acute toxicity was carried out on male mice (NMRI) with a body weight of 18-23 g. All experimental animals were fasted for 20 hours before commencement of the experiment. Water was available ad libitum. To each dosage group there belonged four animals. The dosage sequence was logarithmic. The test substances were administered intragastrally as suspension in 0.88% Methocel. The volume of administration amounted to 20 ml/kg.

mice = assay: Comparative investigations of the anticonvulsive action in cramp models 1-9 (overall); type: in vivo; details: all cramp models, i.g., male mouse
Protocol: as §1, §2, §5, §3, §4

[9] = po, 5 min, i.g., male mouse, 35 mA, 0.3 s, observation 5 min, read-out: ED50 electroshock
[10] = i.g., male mouse, pentetrazole 140 mg/kg s.c., observation 20 min
[11] = i.g., male mouse, semicarbazide hydrochloride 1000 mg/kg s.c., observation 90 min
[12] = i.g., male mouse, 3-mercaptopropionic acid, observation 30 min
[13] = i.g., male mouse, isoniazide 250 mg/kg s.c., observation 90 min
[14] = i.g., male DBA/2j mouse, 10.9 KHz sound of 110 dBA, 30 s, observation 1 min

Compound | ED50 (male mice (NMRI) [1]; [9]) [mg/kg] | ED50 (male mice (NMRI) [2]; [10]) [mg/kg] | ED50 (male mice (NMRI) [3]; [11]) [mg/kg] | ED50 (male mice (NMRI) [4]) [mg/kg] | ED50 (male mice (NMRI) [5]) [mg/kg] | ED50 (male mice (NMRI) [6]; [12]) [mg/kg] | ED50 (male mice (NMRI) [7]; [13]) [mg/kg] | ED50 (male mice (NMRI) [8]) [mg/kg] | ED50 (DBA/2j mice; [14]) [mg/kg] | LD50 at 168 h (in vivo) [mg/kg] | selectivity ratio (in vivo) | ED50 strychnine cramp (male mice (NMRI) [5]) | further results
Cc1cccc(C)c1NC(=O)/C=C1\SCC(=O)N1C [2 (a), (Z)-(3-Methyl-4-oxothiazolidin-2-ylidene)-N-(2,6-dimethylphenyl)-acetamide] | 13.6 | 19.9 | 14.1 | 11.3 | 14.9 | 8.7 | 5.32 | 2.68 | 2.9 | 1980 | 99.8 to 739 | – | –
Cc1cccc(Cl)c1NC(=O)/C=C1\SCC(=O)N1C [2 (i), (Z)-(3-methyl-4-oxothiazolidin-2-ylidene)-N-(2-chloro-6-methylphenyl)-acetamide] | 6.47 | 1.9 | 1.59 | 2.34 | 5.09 | 1.29 | 1.24 | 0.9 | 3 | > 1600 | 243 to 1780 | – | –
CN1C(=O)CS/C1=C\C(=O)Nc1c(Cl)cccc1Cl [2 (j), (Z)-(3-methyl-4-oxothiazolidin-2-ylidene)-N-(2,6-dichlorophenyl)-acetamide] | 4.03 | 1.8 | 3.41 | 1.52 | 5.68 | 1.73 | 5 | 0.8 | 2 | 1600 | 282 to 2000 | – | –
NCCCC(=O)O [GABA] | – | 500 | 60 | – | – | – | – | – | – | – | – | inactive | ED50 electroshock (male mice (NMRI) [1]; i.g., male mouse, 35 mA, 0.3 s, observation 5 min): inactive; ED50 picrotoxin cramp (male mice (NMRI) [4]): inactive
NCC(CC(=O)O)c1ccc(Cl)cc1 (centres unmarked) [baclofen] | – | – | – | 30 | 8.5 | – | – | 20 | – | 200 | 2 to 100 | – | ED50 (male mice (NMRI) [1]; Mus musculus, po, 5 min, read-out: ED50 electroshock): 20 mg/kg; ED50 (male mice (NMRI) [2]; Mus musculus): 100 mg/kg; ED50 (male mice (NMRI) [3]; Mus musculus): 4 mg/kg; ED50 (male mice (NMRI) [6]; Mus musculus): 20 mg/kg; ED50 (male mice (NMRI) [7]; Mus musculus): 2 mg/kg; ED50 (DBA/2j mice; Mus musculus): 5 mg/kg; Side effects (mice): Side effects in all models
O=C1NC(=O)C(c2ccccc2)(c2ccccc2)N1 [phenytoin] | – | – | – | 200 | – | – | 38 | 12.5 | 2.3 | – | – | inactive | ED50 (male mice (NMRI) [1]; Mus musculus, iv, 5 min, read-out: ED50 electroshock (i.v.)): 12.5 mg/kg; ED100 (male mice (NMRI) [1]; po, 5 min, ED 100, i.g., male mouse): 50 mg/kg; ED100 (male mice (NMRI) [2]; ED 100, i.g., male mouse): 50 mg/kg; ED90 (male mice (NMRI) [3]; ED 90, i.g., male mouse): 50 mg/kg
CCCC(CCC)C(=O)O [valproate] | – | – | – | – | – | – | – | – | – | 2000 | 8 to 14.8 | inactive | ED40 (male mice (NMRI) [1]; Mus musculus, po, 5 min, read-out: ED 40 electroshock): 200 mg/kg; ED50 (male mice (NMRI) [2]; Mus musculus): ~250 mg/kg; ED50 (male mice (NMRI) [3]; Mus musculus): 100 mg/kg; ED50 picrotoxin cramp (male mice (NMRI) [4]): inactive; ED50 (male mice (NMRI) [6]; Mus musculus): 154 mg/kg; ED50 (male mice (NMRI) [7]; Mus musculus): 135 mg/kg
